Measured values reported in ChEMBL document CHEMBL6109087, “Design and synthesis of azole derivatives of echinocystic acid as α-glucosidase inhibitors with hypoglycemic activity” (Eur J Med Chem, 2025).
The source made the active and inactive calls. No cut-off for these calls is given here.

Tests used:
[1] = biological target: Alpha-glucosidase (Saccharomyces cerevisiae S288c) (UniProt P53341+P38158+P07265); assay: Inhibition of alpha-glucosidase using 4-Nitrophenyl-[…]-D-glucopyranoside (pNPG) as substrate assessed as inhibition rate at 30 uM relative control; assay type: protein assay
Alpha-glucosidase [2] = biological target: T1, Alpha-glucosidase (Saccharomyces cerevisiae S288c, UniProt P53341+P38158+P07265); assay: Inhibition of alpha-glucosidase using 4-Nitrophenyl-[…]-D-glucopyranoside (pNPG) as substrate; assay type: protein assay
Alpha-glucosidase [3] = biological target: T1, Alpha-glucosidase; assay: Inhibition of alpha-glucosidase using P-nitro phenyl-alpha-D-glucopyranoside as substrate assessed as substrate hydrolysis; assay type: protein assay
[4] = Cytotoxicity against human LO2 cells assessed as cell viability measured after 24 hrs by MTT assay; assay type: toxicity, cell-based, L02
[5] = test system: alpha-glucosidase (unknown origin); assay: Selectivity index, ratio of CC50 for Cytotoxicity against human LO2 cells to IC50 for alpha-glucosidase (unknown origin); assay type: toxicity, cell-based, L02; conditions: read-out: Selectivity Index
Mus musculus = assay: Reduction in blood glucose concentration in male C57BL/6J mouse assessed as peak blood glucose and glucose AUC at 100 mg/kg preadministered for 30 mins via gavage followed by treated 2 g/Kg of sucrose and measured up to 120 mins post sucrose challenge by sucrose loading test; assay type: functional, organism-based; conditions: time 150.0 min
Alpha-glucosidase [6] = biological target: T1, Alpha-glucosidase; assay: Inhibition of alpha-glucosidase; assay type: protein assay
Alpha-glucosidase [7] = biological target: T1, Alpha-glucosidase; assay: Binding affinity to alpha-glucosidase assessed as inhibition constant; assay type: protein assay

Row | SMILES | inhibition [1] [%] | IC50 (Alpha-glucosidase [2]) [µM] | also measured
1 | COc1ccc(-n2cc(CNC(=O)COC(=O)[C@]34CCC(C)(C)C[C@H]3C3=CC[C@@H]5[C@@]6(C)CC[C@H](O)C(C)(C)[C@@H]6CC[C@@]5(C)[C@]3(C)C[C@H]4O)nn2)cc1 | 51.4 | > 30 | –
2 | COc1cc(-c2nnc(COC(=O)[C@]34CCC(C)(C)C[C@H]3C3=CC[C@@H]5[C@@]6(C)CC[C@H](O)C(C)(C)[C@@H]6CC[C@@]5(C)[C@]3(C)C[C@H]4O)o2)cc(OC)c1OC | 49.1 | > 30 | –
3 | COc1ccc(NC(=O)Cn2cc(COc3cc(O)c4c(=O)c5ccc(OC)cc5oc4c3)nn2)c(OC)c1 | – | – | IC50 (Alpha-glucosidase [3]): 2.06 µM
4 | CC1(C)CC[C@]2(C(=O)OCc3nc(-c4ccccc4)no3)[C@H](O)C[C@]3(C)C(=CC[C@@H]4[C@@]5(C)CC[C@H](O)C(C)(C)[C@@H]5CC[C@]43C)[C@@H]2C1 | 58.3 | 26.2 | –
5 | CC1(C)CC[C@]2(C(=O)OCCn3ncn(-c4ccc(F)cc4)c3=O)[C@H](O)C[C@]3(C)C(=CC[C@@H]4[C@@]5(C)CC[C@H](O)C(C)(C)[C@@H]5CC[C@]43C)[C@@H]2C1 | 56.9 | 29.32 | –
6 | CC1(C)CC[C@]2(C(=O)OCc3nc(-c4ccc(Cn5cncn5)cc4)no3)[C@H](O)C[C@]3(C)C(=CC[C@@H]4[C@@]5(C)CC[C@H](O)C(C)(C)[C@@H]5CC[C@]43C)[C@@H]2C1 | 10.5 | > 30 | –
7 | CC1(C)CC[C@]2(C(=O)OCC(=O)NCc3cn(-c4ccc(Cl)c(Cl)c4)nn3)[C@H](O)C[C@]3(C)C(=CC[C@@H]4[C@@]5(C)CC[C@H](O)C(C)(C)[C@@H]5CC[C@]43C)[C@@H]2C1 | 87.3 | 3.4 | CC50 at 24 h [4]: 198 µM; selectivity ratio [5]: 58.3
8 | CC1(C)CC[C@]2(C(=O)OCCn3ncn(-c4ccccc4)c3=O)[C@H](O)C[C@]3(C)C(=CC[C@@H]4[C@@]5(C)CC[C@H](O)C(C)(C)[C@@H]5CC[C@]43C)[C@@H]2C1 | 46.1 | > 30 | –
9 | COc1ccc(CC2(Cc3cn(-c4ccc(C)cc4)nn3)C(=O)OC(C)(C)OC2=O)cc1 | – | – | IC50 (Alpha-glucosidase [3]): 4.63 µM
10 | CC1(C)CC[C@]2(C(=O)O)[C@H](O)C[C@]3(C)C(=CC[C@@H]4[C@@]5(C)CC[C@H](O)C(C)(C)[C@@H]5CC[C@]43C)[C@@H]2C1 | 18.4 | 59.91 | CC50 at 24 h [4]: 56.2 µM; selectivity ratio [5]: 0.94; Activity (Mus musculus): Active
11 | COc1ccc(-n2cc(CNC(=O)[C@]34CCC(C)(C)C[C@H]3C3=CC[C@@H]5[C@@]6(C)CC[C@H](O)C(C)(C)[C@@H]6CC[C@@]5(C)[C@]3(C)C[C@H]4O)nn2)cc1 | 48.5 | > 30 | –
12 | C[C@H]1O[C@H](O[C@H]2[C@H](O)[C@@H](O)[C@@H](O[C@H]3[C@H](O)[C@@H](O)C(O)O[C@@H]3CO)O[C@@H]2CO)[C@H](O)[C@@H](O)[C@@H]1N[C@H]1C=C(CO)[C@@H](O)[C@H](O)[C@H]1O (some centres not stated) | – | – | Activity (Mus musculus): Active
13 | O=C(Cc1cccs1)N[C@@H]1C(=O)N2C(C(=O)O)=C(CSc3nc[nH]n3)CS[C@H]12 [CEFETRIZOLE] | – | – | IC50 (Alpha-glucosidase [6]): 2.1 µM; Ki (Alpha-glucosidase [7]): 0.578 µM
14 | CC1(C)CC[C@]2(C(=O)OCCn3ncn(-c4ccc(Cl)cc4)c3=O)[C@H](O)C[C@]3(C)C(=CC[C@@H]4[C@@]5(C)CC[C@H](O)C(C)(C)[C@@H]5CC[C@]43C)[C@@H]2C1 | 47.7 | 28.69 | –
15 | CC1(C)CC[C@]2(C(=O)OCC(=O)NCc3cn(-c4ccc(F)cc4)nn3)[C@H](O)C[C@]3(C)C(=CC[C@@H]4[C@@]5(C)CC[C@H](O)C(C)(C)[C@@H]5CC[C@]43C)[C@@H]2C1 | 61.5 | 18.52 | –
16 | CC1(C)CC[C@]2(C(=O)NCc3cn(-c4ccc(Cl)cc4)nn3)[C@H](O)C[C@]3(C)C(=CC[C@@H]4[C@@]5(C)CC[C@H](O)C(C)(C)[C@@H]5CC[C@]43C)[C@@H]2C1 | 69.2 | 21.19 | –
17 | CC1(C)CC[C@]2(C(=O)OCc3nc(-c4ccc(F)cc4)no3)[C@H](O)C[C@]3(C)C(=CC[C@@H]4[C@@]5(C)CC[C@H](O)C(C)(C)[C@@H]5CC[C@]43C)[C@@H]2C1 | 64.6 | 16.01 | –
18 | COc1ccc(-c2noc(COC(=O)[C@]34CCC(C)(C)C[C@H]3C3=CC[C@@H]5[C@@]6(C)CC[C@H](O)C(C)(C)[C@@H]6CC[C@@]5(C)[C@]3(C)C[C@H]4O)n2)cc1 | 94.8 | 3.41 | CC50 at 24 h [4]: 38.5 µM; selectivity ratio [5]: 11.3
19 | CC1(C)CC[C@]2(C(=O)NCc3cn(-c4ccccc4)nn3)[C@H](O)C[C@]3(C)C(=CC[C@@H]4[C@@]5(C)CC[C@H](O)C(C)(C)[C@@H]5CC[C@]43C)[C@@H]2C1 | 55.9 | 22.72 | –
20 | CC1(C)CC[C@]2(C(=O)OCc3nc(-c4ccc(Cl)c(Cl)c4)no3)[C@H](O)C[C@]3(C)C(=CC[C@@H]4[C@@]5(C)CC[C@H](O)C(C)(C)[C@@H]5CC[C@]43C)[C@@H]2C1 | 36.5 | > 30 | –
21 | CC1(C)CC[C@]2(C(=O)OCCn3ncn(-c4ccc(Cl)c(Cl)c4)c3=O)[C@H](O)C[C@]3(C)C(=CC[C@@H]4[C@@]5(C)CC[C@H](O)C(C)(C)[C@@H]5CC[C@]43C)[C@@H]2C1 | 80.3 | 3.42 | CC50 at 24 h [4]: 66.8 µM; selectivity ratio [5]: 19.5

Second part, led by results:

Row | inhibition [1] [%] | IC50 (Alpha-glucosidase [2]) [µM] | SMILES | also measured
22 | 47.7 | > 30 | CC1(C)CC[C@]2(C(=O)NCc3cn(-c4ccc(F)cc4)nn3)[C@H](O)C[C@]3(C)C(=CC[C@@H]4[C@@]5(C)CC[C@H](O)C(C)(C)[C@@H]5CC[C@]43C)[C@@H]2C1 | –
23 | 67.3 | 21.94 | CC1(C)CC[C@]2(C(=O)OCc3nnc(-c4ccc(Cl)cc4)o3)[C@H](O)C[C@]3(C)C(=CC[C@@H]4[C@@]5(C)CC[C@H](O)C(C)(C)[C@@H]5CC[C@]43C)[C@@H]2C1 | –
24 | 57.2 | 19.36 | CC1(C)CC[C@]2(C(=O)OCc3nnc(-c4ccccc4)o3)[C@H](O)C[C@]3(C)C(=CC[C@@H]4[C@@]5(C)CC[C@H](O)C(C)(C)[C@@H]5CC[C@]43C)[C@@H]2C1 | –
25 | 63 | 21.25 | Cc1ccc(-n2cc(CNC(=O)[C@]34CCC(C)(C)C[C@H]3C3=CC[C@@H]5[C@@]6(C)CC[C@H](O)C(C)(C)[C@@H]6CC[C@@]5(C)[C@]3(C)C[C@H]4O)nn2)cc1 | –
26 | 85.1 | 4.11 | CC1(C)CC[C@]2(C(=O)OCc3nc(-c4ccc(Cl)cc4)no3)[C@H](O)C[C@]3(C)C(=CC[C@@H]4[C@@]5(C)CC[C@H](O)C(C)(C)[C@@H]5CC[C@]43C)[C@@H]2C1 | CC50 at 24 h [4]: 108 µM; selectivity ratio [5]: 26.4
27 | 6.67 | > 30 | COc1cc(-n2cc(CNC(=O)[C@]34CCC(C)(C)C[C@H]3C3=CC[C@@H]5[C@@]6(C)CC[C@H](O)C(C)(C)[C@@H]6CC[C@@]5(C)[C@]3(C)C[C@H]4O)nn2)cc(OC)c1OC | –
28 | 69.8 | 17.25 | CC1(C)CC[C@]2(C(=O)OCc3nnc(-c4ccc(Cl)c(Cl)c4)o3)[C@H](O)C[C@]3(C)C(=CC[C@@H]4[C@@]5(C)CC[C@H](O)C(C)(C)[C@@H]5CC[C@]43C)[C@@H]2C1 | –
29 | 56.5 | 22.28 | COc1ccc(-c2nnc(COC(=O)[C@]34CCC(C)(C)C[C@H]3C3=CC[C@@H]5[C@@]6(C)CC[C@H](O)C(C)(C)[C@@H]6CC[C@@]5(C)[C@]3(C)C[C@H]4O)o2)cc1 | –
30 | 63.3 | 18.18 | CC1(C)CC[C@]2(C(=O)OCC(=O)NCc3cn(-c4ccc(Cl)cc4)nn3)[C@H](O)C[C@]3(C)C(=CC[C@@H]4[C@@]5(C)CC[C@H](O)C(C)(C)[C@@H]5CC[C@]43C)[C@@H]2C1 | –
31 | 59.9 | 21.7 | CC1(C)CC[C@]2(C(=O)OCC(=O)NCc3cn(-c4ccccc4)nn3)[C@H](O)C[C@]3(C)C(=CC[C@@H]4[C@@]5(C)CC[C@H](O)C(C)(C)[C@@H]5CC[C@]43C)[C@@H]2C1 | –
32 | 68 | 23.62 | CC1(C)CC[C@]2(C(=O)OCC(=O)NCc3cn(-c4ccc(Br)cc4)nn3)[C@H](O)C[C@]3(C)C(=CC[C@@H]4[C@@]5(C)CC[C@H](O)C(C)(C)[C@@H]5CC[C@]43C)[C@@H]2C1 | –
